Source: patent US12138256B2, “Treatment of cardiopulmonary disorders” (Bayer Aktiengesellschaft, priority 2021, dated 2024)
Values joined by “and” are separate entries in the source; they are usually repeats but may differ in a detail not shown here. Identical values can stand only once. Like-named read-outs stand apart in the source and are kept apart here.

Assays:
[1] = Storage stability of pseudopolymorphic forms (XRPD after storage); format: physicochemical; settings: 25° C./60% and 40° C./75% relative humidity
[2] = Stability of the crystalline form during micronization (spiral jet mill, XRPD); format: physicochemical
Text: Generally no amorphization even partial nor form conversion should happen during the necessary micronization step.
The corresponding batches (examples 8a-8d) were micronized using a 50 mm spiral jet mill and pressurized nitrogen with the following parameters (see table 16b).
The corresponding batches were micronized using a 100 mm spiral jet mill and pressurized nitrogen with the following parameters (see table 16c).

[3] = test system: anesthetized PAH minipigs; assay: PAH minipig model: intratracheal application of dry powder formulations and different hydrates (PennCentury insufflator); format: in vivo, Göttingen minipig; settings: for BP (mean) / PAP(mean) / BP % changes vs. prevalues / PAP % changes vs. prevalues: 375 μg/kg i.t.; for BP (mean) / PAP(mean): absolute values; for BP % changes vs. prevalues / PAP % changes vs. prevalues: each animal
Text: After characterization of the effects of comparative example 11 after nebulization of compound solutions, in a further step the effects of crystalline forms of comparative example 11, e.g. sesquihydrate, e.g. example 6e on PAP and BP after inhaled application of different dry powder lactose formulations (table C2.1.8) were studied in anesthetized PAH minipigs.
As reference pure Lactose vehicle was applied in the beginning of each experiment.

[4] = Protein binding via Transil assay, plasma of all species investigated (C-5.2); format: in vitro ADME; settings: Wistar (rat), Beagle (dog), plasma (Transil beads), read-out: free fractions
Text: (§1) The distribution of a test substance between Transil® (phosphatidylcholine lipid bilayers immobilized on silica beads) and plasma is a characteristic feature of any pharmaceutical compound and is dependent on its extent of binding to plasma proteins. By comparing the distribution between Transil® and buffer with the distribution between Transil® and plasma of any species of interest, the unbound fraction in the plasma of the respective animal species can be calculated in vitro. The respective plasma and buffer concentrations were determined via a radioactivity analysis. A detailed description of the method and its validation was published by Schuhmacher et al. (2).

[5] = Protein binding via Transil assay, human plasma; format: in vitro ADME; settings: Human (male) plasma, Transil assay; read-out: Fraction unbound
Text: as §1

[6] = Protein binding via Transil assay, rat plasma; format: in vitro ADME; settings: Rat Wistar plasma, Transil assay
Text: as §1

[7] = Protein binding via Transil assay, dog plasma; format: in vitro ADME; settings: Dog Beagle plasma, Transil assay
Text: as §1

O=C(O)c1ccc(CCN(CCc2ccccc2OCc2ccc(-c3ccc(C(F)(F)F)cc3)cc2Cl)[C@H]2CCCc3nc(C(=O)O)ccc32)cc1 [example 4, (5S)-{[2-(4-Carboxyphenyl)ethyl][2-(2-{[3-chloro-4′-(trifluoromethyl)biphenyl-4-yl]methoxy}phenyl)-ethyl]amino}-5,6,7,8-tetrahydroquinoline-2-carboxylic acid]
storage stability of the form ([1]; listed as monohydrate I): stable | stability of the form under micronization ([2]; listed as monohydrate I): stable under micronization conditions

O=C(O)c1ccc(CCN(CCc2ccccc2OCc2ccc(-c3ccc(C(F)(F)F)cc3)cc2Cl)[C@H]2CCCc3nc(C(=O)O)ccc32)cc1 [example 2, (5S)-{[2-(4-Carboxyphenyl)ethyl][2-(2-{[3-chloro-4′-(trifluoromethyl)biphenyl-4-yl]methoxy}phenyl)-ethyl]amino}-5,6,7,8-tetrahydroquinoline-2-carboxylic acid]
efficacy with regard to PAP reduction as well as systemic BP reduction ([3]; 1.5 mg/4 kg (=375 μg/kg) intratracheally, micronized): comparable efficacy | BP (mean) ([3]; time 0): 109 mmHg and 127 mmHg and 136 mmHg | PAP(mean) ([3]; time 0): 35.8 mmHg and 38.7 mmHg and 39.7 mmHg | BP (mean) ([3]; time 10): 110 mmHg and 126 mmHg and 135 mmHg | PAP(mean) ([3]; time 10): 35.8 mmHg and 38.7 mmHg and 37.1 mmHg | BP (mean) ([3]; time 20): 117 mmHg and 128 mmHg and 139 mmHg | PAP(mean) ([3]; time 20): 38.9 mmHg and 38.2 mmHg and 40.2 mmHg | BP (mean) ([3]; time 30): 121 mmHg and 128 mmHg and 139 mmHg | PAP(mean) ([3]; time 30): 39.8 mmHg and 38.6 mmHg and 40.0 mmHg | BP (mean) ([3]; time 40): 123 mmHg and 127 mmHg and 137 mmHg | PAP(mean) ([3]; time 40): 40.4 mmHg and 39.0 mmHg and 40.7 mmHg | BP (mean) ([3]; time 50): 120 mmHg and 127 mmHg and 135 mmHg | PAP(mean) ([3]; time 50): 39.7 mmHg and 39.2 mmHg and 40.2 mmHg | BP % changes vs. prevalues ([3]; time 50): 99.1% and 100.1% and 100.0% | PAP % changes vs. prevalues ([3]; time 50): 99.1% and 99.2% and 98.5% | BP (mean) ([3]; time 60): 121 mmHg and 127 mmHg and 136 mmHg | PAP(mean) ([3]; time 60): 39.9 mmHg and 39.2 mmHg and 40.8 mmHg | BP % changes vs. prevalues ([3]; time 60): 99.9% and 100.1% and 100.7% | PAP % changes vs. prevalues ([3]; time 60): 99.7% and 99.3% and 99.8% | BP (mean) ([3]; time 70): 124 mmHg and 126 mmHg and 137 mmHg | PAP(mean) ([3]; time 70): 39.1 mmHg and 36.0 mmHg and 37.2 mmHg | BP % changes vs. prevalues ([3]; time 70): 102.4% and 99.3% and 101.4% | PAP % changes vs. prevalues ([3]; time 70): 97.7% and 91.1% and 91.0% | BP (mean) ([3]; time 80): 123 mmHg and 124 mmHg and 135 mmHg | PAP(mean) ([3]; time 80): 39.1 mmHg and 36.1 mmHg and 35.9 mmHg | BP % changes vs. prevalues ([3]; time 80): 101.6% and 97.7% and 100.0% | PAP % changes vs. prevalues ([3]; time 80): 97.7% and 91.3% and 88.0% | BP (mean) ([3]; time 90): 122 mmHg and 125 mmHg and 134 mmHg | PAP(mean) ([3]; time 90): 37.9 mmHg and 35.2 mmHg and 34.5 mmHg | BP % changes vs. prevalues ([3]; time 90): 100.7% and 98.5% and 99.2% | PAP % changes vs. prevalues ([3]; time 90): 94.7% and 89.1% and 84.5% | BP (mean) ([3]; time 100): 122 mmHg and 124 mmHg and 132 mmHg | PAP(mean) ([3]; time 100): 36.8 mmHg and 33.2 mmHg and 32.7 mmHg | BP % changes vs. prevalues ([3]; time 100): 100.7% and 97.7% (2×) | PAP % changes vs. prevalues ([3]; time 100): 91.8% and 84.0% and 80.0% | BP (mean) ([3]; time 110): 122 mmHg and 125 mmHg and 133 mmHg | PAP(mean) ([3]; time 110): 35.5 mmHg and 31.9 mmHg and 31.2 mmHg | BP % changes vs. prevalues ([3]; time 110): 100.7% and 98.5% (2×) | PAP % changes vs. prevalues ([3]; time 110): 88.8% and 80.9% and 76.3% | BP (mean) ([3]; time 120): 121 mmHg and 125 mmHg and 132 mmHg | PAP(mean) ([3]; time 120): 34.8 mmHg and 30.2 mmHg and 29.8 mmHg | BP % changes vs. prevalues ([3]; time 120): 99.9% and 98.5% and 97.7% | PAP % changes vs. prevalues ([3]; time 120): 87.0% and 76.6% and 73.0% | BP (mean) ([3]; time 130): 120 mmHg and 124 mmHg and 131 mmHg | PAP(mean) ([3]; time 130): 34.2 mmHg and 29.7 mmHg and 29.3 mmHg | BP % changes vs. prevalues ([3]; time 130): 99.1% and 97.7% and 97.0% | PAP % changes vs. prevalues ([3]; time 130): 85.5% and 75.2% and 71.7% | BP (mean) ([3]; time 140): 119 mmHg and 125 mmHg and 131 mmHg | PAP(mean) ([3]; time 140): 34.3 mmHg and 29.3 mmHg and 28.6 mmHg | BP % changes vs. prevalues ([3]; time 140): 98.3% and 98.5% and 97.0% | PAP % changes vs. prevalues ([3]; time 140): 85.6% and 74.3% and 70.0% | BP (mean) ([3]; time 150): 117 mmHg and 124 mmHg and 130 mmHg | PAP(mean) ([3]; time 150): 33.7 mmHg and 28.4 mmHg | BP % changes vs. prevalues ([3]; time 150): 96.6% and 97.7% and 96.3% | PAP % changes vs. prevalues ([3]; time 150): 84.1% and 71.9% and 69.4% | BP (mean) ([3]; time 160): 117 mmHg | BP % changes vs. prevalues ([3]; time 160): 96.6% and 95.3% and 96.3% | PAP % changes vs. prevalues ([3]; time 160): 84.1% and 70.4% and 68.1% | BP % changes vs. prevalues ([3]; time 170): 95.8% and 94.5% and 95.5% | PAP % changes vs. prevalues ([3]; time 170): 83.8% and 69.8% and 68.5% | BP % changes vs. prevalues ([3]; time 180): 94.1% and 92.2% and 97.7% | PAP % changes vs. prevalues ([3]; time 180): 83.8% and 68.7% and 68.9% | BP % changes vs. prevalues ([3]; time 190): 92.5% and 91.4% and 98.5% | PAP % changes vs. prevalues ([3]; time 190): 83.9% and 67.7% and 69.3% | BP % changes vs. prevalues ([3]; time 200): 90.0% and 90.6% and 97.0% | PAP % changes vs. prevalues ([3]; time 200): 83.7% and 67.9% and 68.5% | BP % changes vs. prevalues ([3]; time 210): 90.8% | PAP % changes vs. prevalues ([3]; time 210): 83.4% and 66.5% and 67.7% | BP (mean) ([3]; time −10): 116 mmHg and 126 mmHg and 139 mmHg | PAP(mean) ([3]; time −10): 37.9 mmHg and 37.8 mmHg and 39.4 mmHg | storage stability of the form ([1]; listed as monohydrate II): underwent conversion to monohydrate I | stability of the form under micronization [2]: monohydrate II with partial amorphization | stability of the form under micronization ([2]; listed as monohydrate II): partial amorphization occurred under several conditions

O=C(O)CCCCN(CCc1ccccc1OCc1ccc(CCc2ccccc2)cc1)Cc1ccc(C(=O)O)cc1 [comparative example 1, 4-[((4Carboxybutyl)-{2-[(4-phenethylbenzyl)oxy]phenethyl}amino)methyl]benzoic acid]
fraction unbound [4]: < 0.01 | fraction unbound [5]: 0.00392 | fraction unbound [6]: 0.00351 | fraction unbound [7]: 0.0112
